“And” between values parts separate entries of the source, which are not always exact repeats. Equal entries are not always repeated.
The compounds below were run on INS-1E rat beta cells, no cytokines, CellTiter-Glo ATP, 48 h (assay: ATP level change in INS-1E without cytokines, dose response, counter-screen for beta-cell apoptosis protection project, INS-1E rat cells, ATP luminescence, cherry pick (AID 463229)).

| Compound | AC50 |
| --- | --- |
| C=CCn1c(C)c(/C=C/c2cc[n+](C)cc2)c2ccccc21 | 5.99 µM |
| CCCCCCCCCCOC(=O)Cn1c(COc2ccc(OC)cc2)[n+](C)c2ccccc21 | 4.96 µM and 3.95 µM |
| CCCOc1cc(NCc2ccccc2)c2ncn(C(C)C)c2c1 | 7.28 µM |
| O=C1C=C(c2cccs2)C[C@H](c2ccccc2)[C@H]1n1nnc([N+](=O)[O-])n1 | 12.8 µM |
| CCN1CCN(Cc2ccc(NC(=O)c3cc(NC(=O)C(=O)c4c[nH]c5ccccc45)cc(OC)c3)cc2C(F)(F)F)CC1 | 7.12 µM |
| Cc1cc(Nc2nc3ccccc3nc2Cl)n(-c2ccc([N+](=O)[O-])cc2)n1 | 12 µM |
| CC(=O)Nc1ccc(S(=O)(=O)Nc2ccc(N3CCCCC3)cc2)cc1 | 4.33 µM |
| COc1ccc(NS(=O)(=O)c2ccc(N3CCOCC3)c(N)c2)cc1 | 7.12 µM |
| COc1cc(C(=O)Oc2ccccc2/C=N/NC(=O)c2ccc(C)c(Cl)c2)cc(OC)c1OC | 12.6 µM |
| COc1ccc(N=C2S/C(=C\c3ccc(N4CCOCC4)o3)C(=O)N2CCc2c[nH]c3ccccc23)cc1 | 13.8 µM |
| CC(C)Cn1c(N)c(C(=O)CSc2ccc3c(c2)OCCO3)c(=O)n(C)c1=O | 4.85 µM |
| Cc1ccc(-n2c(-c3ccc(Br)cc3)c[n+]3c2CCc2ccc4cccnc4c2-3)cc1 | 0.482 µM |
| COc1ccccc1-n1c(-c2ccccc2)c[n+]2c1CCc1ccccc1-2 | 2.16 µM and 3.41 µM |
| O=C1C=C(Nc2ccccc2O)c2ccccc2C1=O | 8.04 µM |
| Cc1[nH]c(N=Nc2ccccc2)nc1N=Nc1ccccc1 | 8.16 µM |
| N=c1c2c(n(Cc3cccc(Cl)c3)c3c1CCC3)CCCC2 | 7.28 µM |
| COc1ccc(C2=Nn3c([n+](C)c4ccccc43)SC2)cc1 | 1.54 µM |
| Cc1ccc(Nc2c(-c3ccccn3)nc3cc(C)ccn23)cc1 | 7.49 µM |
| Cc1ccc(C(=O)N2N=C(c3ccc(Br)cc3)CC2c2ccccc2O)cc1 (configuration not stated) | 7.3 µM |
| CNC[C@H](Cc1ccccc1)NC[C@@H](Cc1cccc2ccccc12)NCCc1ccc(C)cc1 | 7.64 µM |
| CC1CCCCC1NS(=O)(=O)c1ccc(S(=O)(=O)NCc2ccncc2)cc1 (configuration not stated) | 4.07 µM |

| Compound | AC50 |
| --- | --- |
| CCN(CC)CCn1c2ccccc2c2cnc(N)c(C#N)c21 | 14.3 µM |
| CCCCCc1ccc(-c2cn(CN3C(=O)c4ccccc4C3=O)nn2)cc1 | 1.23 µM |
| CCOc1ccc(Nc2nc(Cc3nnc(SCC(=O)c4ccc(C)c(C)c4)o3)cs2)cc1 | 10.6 µM |
| COc1ccc(NCc2nnc(SCC(=O)Nc3nc(-c4ccccc4)cs3)n2-c2ccccc2)cc1 | 7 µM |
| O=C1C=C(c2ccc(F)cc2OCc2ccccc2)C[C@@H](c2ccc(Cl)cc2)C1 | 5.46 µM |
| CCCNC(=O)c1ccc2c(=O)c(O)c(-c3ccc(Cl)c([N+](=O)[O-])c3)[nH]c2c1 | 10.8 µM |
| O=C(C(Cl)Cl)N1c2ccccc2OCC1c1ccccc1 (configuration not stated) | 8.31 µM |
| O=C(c1cccnc1)N(c1cc2sc(=O)oc2c2ccccc12)S(=O)(=O)c1ccccc1 | 15.5 µM |
| O=C(/C=C/c1ccc(F)cc1)NC(=S)NNC(=O)c1cnccn1 | 5.29 µM |
| Cc1[nH]c2ccccc2c1CN1CCN(c2ccccn2)CC1 | 5.1 µM |
| CC1=C(CO)C(=O)OC([C@@H](C)C2CC[C@H]3C4C[C@H]5O[C@]56[C@@H](O)C=CC(=O)[C@]6(C)C4CC[C@]23C)C1 (some centres not stated) | 6.2 µM |
| CC#CC[N+](C)(C)CCCCCCCCCCCC | 2.23 µM |
| Cc1sc2ncnc(NCC(C)(C)N3CCOCC3)c2c1C | 6.11 µM |
| C=C(C(=O)c1ccccc1)C(C(=C)C(=O)c1ccccc1)c1ccc(OC)cc1 | 7.54 µM |
| Cc1cccc(OCc2n(CC(=O)OC3CC(C)CCC3C(C)C)c3ccccc3[n+]2C)c1 (configuration not stated) | 4.12 µM |
| CC1CN(CC(O)COC(c2ccc(Cl)cc2)c2ccc(Cl)cc2)CC(C)O1 (configuration not stated) | 14.2 µM |
| Cc1cc2c(NCCc3ccccc3)ncnc2s1 | 2.95 µM |
| Cc1ccc2c(c1)S/C(=C/c1ccc[n+](CCO)c1)N2C | 3 µM |
| Cc1ccc(-c2c[n+](Cc3ccc(Cl)c(Cl)c3)c3n2CCC3)cc1 | 4.72 µM |
| c1ccc(CNc2c3ccccc3nc3ccccc23)cc1 | 11.5 µM |
| Cc1cc(/C=N/n2c(COc3ccccc3C)nc3ccccc3c2=O)c(O)c([N+](=O)[O-])c1 | 8.92 µM |

Source: PubChem BioAssay AID463229 (Broad Institute, 2010)
